Measured values from ChEMBL document CHEMBL1201862, “PubChem BioAssay data set” (2004).
Active and inactive are the calls of the source. Unless noted, no cut-off for these calls is given here.

Key:
Vero = experiment: Vero cell toxicity, dose response, cytotoxicity control, plate reader, cherry-pick samples (AID 687020); assay type: functional, cell-based; conditions: Chlorocebus sabaeus
[1] = biological target: T1, DNA repair and recombination protein RAD54-like (Homo sapiens, UniProt Q92698); experiment: inhibitors of human RAD54 branch migration, confirmation, biochemical, fluorescence, cherry-picked samples, dose series (AID 651657); assay type: functional
T1 sequence (Q92698 whole entry): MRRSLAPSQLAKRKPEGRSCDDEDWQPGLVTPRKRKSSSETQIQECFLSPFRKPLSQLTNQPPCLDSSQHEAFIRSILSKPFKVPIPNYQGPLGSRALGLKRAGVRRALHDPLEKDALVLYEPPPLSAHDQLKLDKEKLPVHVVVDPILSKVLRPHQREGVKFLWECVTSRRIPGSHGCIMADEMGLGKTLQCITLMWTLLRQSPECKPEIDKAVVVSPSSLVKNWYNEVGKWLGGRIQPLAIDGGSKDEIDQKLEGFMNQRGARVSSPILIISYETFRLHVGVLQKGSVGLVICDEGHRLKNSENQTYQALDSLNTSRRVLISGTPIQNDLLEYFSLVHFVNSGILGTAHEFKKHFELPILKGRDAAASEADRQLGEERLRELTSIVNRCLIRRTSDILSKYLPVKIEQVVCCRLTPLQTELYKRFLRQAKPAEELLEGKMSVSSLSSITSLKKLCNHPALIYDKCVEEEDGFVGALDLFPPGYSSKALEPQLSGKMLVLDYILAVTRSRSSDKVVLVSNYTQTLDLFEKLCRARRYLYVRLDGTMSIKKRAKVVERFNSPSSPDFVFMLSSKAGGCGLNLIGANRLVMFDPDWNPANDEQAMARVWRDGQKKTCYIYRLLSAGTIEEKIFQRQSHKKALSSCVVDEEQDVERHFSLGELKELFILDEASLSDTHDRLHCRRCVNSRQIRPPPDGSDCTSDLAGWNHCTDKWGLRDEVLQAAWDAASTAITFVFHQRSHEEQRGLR

[2] = biological target: T2, Beta-2 adrenergic receptor (Homo sapiens, UniProt P07550); experiment: Dose response for HTS for Beta-2AR agonists via FAP method from Powderset3.; assay type: functional
T2 sequence (P07550 whole entry): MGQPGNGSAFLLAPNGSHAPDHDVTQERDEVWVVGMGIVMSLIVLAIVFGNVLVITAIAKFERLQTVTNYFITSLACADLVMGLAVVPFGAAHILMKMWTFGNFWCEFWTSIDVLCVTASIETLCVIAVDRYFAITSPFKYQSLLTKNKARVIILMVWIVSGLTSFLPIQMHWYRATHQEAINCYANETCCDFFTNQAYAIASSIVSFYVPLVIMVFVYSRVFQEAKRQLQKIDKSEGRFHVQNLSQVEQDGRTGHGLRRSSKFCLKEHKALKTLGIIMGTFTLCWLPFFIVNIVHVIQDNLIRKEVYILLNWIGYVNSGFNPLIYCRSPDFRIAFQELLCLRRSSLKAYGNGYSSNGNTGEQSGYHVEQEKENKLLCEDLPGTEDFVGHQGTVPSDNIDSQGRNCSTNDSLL

Insulin-degrading enzyme = biological target: T3, Insulin-degrading enzyme (Homo sapiens, UniProt P14735); experiment: Dose Response: Fluorescence polarization-based cell-based high throughput dose response assay for inhibitors of insulin-degrading enzyme (IDE). [Related pubchem assays: 434962 (Primary screen (IDE inhibitors in singlicate)), 449730 (Counterscreen (Cytotoxicity in triplicate)), 435028 (Confirmation (IDE inhibitors in triplicate)), 434984 (Summary …; assay type: functional
T3 sequence (P14735 whole entry): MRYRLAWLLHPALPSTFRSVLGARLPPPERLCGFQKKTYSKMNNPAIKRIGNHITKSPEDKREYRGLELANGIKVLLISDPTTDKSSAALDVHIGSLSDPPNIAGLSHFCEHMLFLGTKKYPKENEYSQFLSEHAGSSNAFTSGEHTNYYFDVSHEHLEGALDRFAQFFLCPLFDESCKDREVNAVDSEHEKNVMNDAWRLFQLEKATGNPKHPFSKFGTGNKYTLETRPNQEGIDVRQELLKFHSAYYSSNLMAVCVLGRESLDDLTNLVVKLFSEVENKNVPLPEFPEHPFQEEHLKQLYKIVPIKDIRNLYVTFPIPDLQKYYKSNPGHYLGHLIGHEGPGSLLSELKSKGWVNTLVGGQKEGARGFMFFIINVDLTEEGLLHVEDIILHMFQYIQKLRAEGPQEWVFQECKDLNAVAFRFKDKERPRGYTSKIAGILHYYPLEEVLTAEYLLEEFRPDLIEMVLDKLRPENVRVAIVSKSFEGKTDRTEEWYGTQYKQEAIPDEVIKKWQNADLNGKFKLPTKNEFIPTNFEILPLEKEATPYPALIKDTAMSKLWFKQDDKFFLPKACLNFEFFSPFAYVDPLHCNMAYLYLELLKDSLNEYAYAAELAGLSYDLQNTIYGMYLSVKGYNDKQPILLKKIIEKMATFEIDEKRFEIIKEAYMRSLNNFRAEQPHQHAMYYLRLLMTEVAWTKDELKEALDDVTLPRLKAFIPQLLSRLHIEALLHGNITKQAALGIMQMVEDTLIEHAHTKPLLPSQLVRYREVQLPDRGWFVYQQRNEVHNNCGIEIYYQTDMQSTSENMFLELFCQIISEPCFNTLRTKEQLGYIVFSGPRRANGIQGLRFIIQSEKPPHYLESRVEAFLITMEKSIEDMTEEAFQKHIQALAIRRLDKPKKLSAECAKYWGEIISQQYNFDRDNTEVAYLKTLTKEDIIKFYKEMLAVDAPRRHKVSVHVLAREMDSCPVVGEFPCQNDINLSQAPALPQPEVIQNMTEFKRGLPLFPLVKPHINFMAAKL

[3] = Counterscreen for IDE inhibitors: Luminescence-based cell-based high throughput dose response assay to identify compounds that are cytotoxic to HEK cells. [Related pubchem assays: 434962 (Primary screen (IDE inhibitors in singlicate)), 449730 (Counterscreen (Cytotoxicity in triplicate)), 435028 (Confirmation (IDE inhibitors in triplicate)) …; assay type: functional; conditions: HEK293
[4] = biological target: T2, Beta-2 adrenergic receptor; experiment: beta2AR agonists driving receptor internalization, dose response, cell-based, FAP fluorogen, flow cytometry, cherry pick 1 (AID 588763); assay type: functional
[5] = biological target: T4, Tyrosyl-DNA phosphodiesterase 2 (Homo sapiens, UniProt O95551); experiment: human TDP2 enzyme inhibitors, dose response, biochemical, epi absorbance, IC50 (AID 743297)
T4 sequence (O95551 whole entry): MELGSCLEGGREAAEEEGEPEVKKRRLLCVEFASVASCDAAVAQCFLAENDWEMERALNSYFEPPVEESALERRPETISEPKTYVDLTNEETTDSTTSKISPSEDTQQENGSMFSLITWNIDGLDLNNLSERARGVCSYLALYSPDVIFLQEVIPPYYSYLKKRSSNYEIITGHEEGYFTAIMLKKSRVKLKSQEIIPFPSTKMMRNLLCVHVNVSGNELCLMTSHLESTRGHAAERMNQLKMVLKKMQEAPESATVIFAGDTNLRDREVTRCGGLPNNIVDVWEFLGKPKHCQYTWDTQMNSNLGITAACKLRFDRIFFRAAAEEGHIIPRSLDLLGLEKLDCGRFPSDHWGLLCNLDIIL

Protein RecA = biological target: T5, Protein RecA (Mycobacterium tuberculosis, UniProt P9WHJ3); experiment: Fluorescence Cell-Free Homogeneous Dose Retest to Identify Inhibitors of RecA-Intein Splicing Activity. [Related pubchem assays (depositor defined):AID2097, AID2223, AID489010, AID492950]; assay type: functional
T5 sequence (P9WHJ3 whole entry): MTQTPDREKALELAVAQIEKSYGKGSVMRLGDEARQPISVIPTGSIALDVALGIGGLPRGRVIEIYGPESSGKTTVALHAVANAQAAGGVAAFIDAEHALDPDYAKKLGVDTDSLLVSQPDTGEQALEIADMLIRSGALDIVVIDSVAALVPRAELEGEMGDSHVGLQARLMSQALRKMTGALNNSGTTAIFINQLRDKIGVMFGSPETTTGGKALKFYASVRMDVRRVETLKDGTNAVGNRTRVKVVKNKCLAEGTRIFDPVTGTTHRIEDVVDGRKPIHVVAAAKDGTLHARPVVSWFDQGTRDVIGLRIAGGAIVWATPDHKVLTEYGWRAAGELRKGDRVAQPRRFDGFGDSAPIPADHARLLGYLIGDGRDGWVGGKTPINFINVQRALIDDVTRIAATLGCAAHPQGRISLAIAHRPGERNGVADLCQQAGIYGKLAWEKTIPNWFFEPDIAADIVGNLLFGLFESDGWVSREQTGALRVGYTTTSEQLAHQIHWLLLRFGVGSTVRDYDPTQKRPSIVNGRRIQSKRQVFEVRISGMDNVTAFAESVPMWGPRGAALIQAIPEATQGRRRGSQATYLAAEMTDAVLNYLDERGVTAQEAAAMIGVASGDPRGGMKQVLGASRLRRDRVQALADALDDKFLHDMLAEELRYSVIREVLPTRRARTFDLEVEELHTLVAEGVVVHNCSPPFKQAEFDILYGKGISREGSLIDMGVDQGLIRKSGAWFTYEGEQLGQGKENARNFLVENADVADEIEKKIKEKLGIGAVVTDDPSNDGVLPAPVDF

[6] = biological target: T6, Apoptotic protease-activating factor 1 (Homo sapiens, UniProt O14727); assay type: functional
T6 sequence (O14727 whole entry): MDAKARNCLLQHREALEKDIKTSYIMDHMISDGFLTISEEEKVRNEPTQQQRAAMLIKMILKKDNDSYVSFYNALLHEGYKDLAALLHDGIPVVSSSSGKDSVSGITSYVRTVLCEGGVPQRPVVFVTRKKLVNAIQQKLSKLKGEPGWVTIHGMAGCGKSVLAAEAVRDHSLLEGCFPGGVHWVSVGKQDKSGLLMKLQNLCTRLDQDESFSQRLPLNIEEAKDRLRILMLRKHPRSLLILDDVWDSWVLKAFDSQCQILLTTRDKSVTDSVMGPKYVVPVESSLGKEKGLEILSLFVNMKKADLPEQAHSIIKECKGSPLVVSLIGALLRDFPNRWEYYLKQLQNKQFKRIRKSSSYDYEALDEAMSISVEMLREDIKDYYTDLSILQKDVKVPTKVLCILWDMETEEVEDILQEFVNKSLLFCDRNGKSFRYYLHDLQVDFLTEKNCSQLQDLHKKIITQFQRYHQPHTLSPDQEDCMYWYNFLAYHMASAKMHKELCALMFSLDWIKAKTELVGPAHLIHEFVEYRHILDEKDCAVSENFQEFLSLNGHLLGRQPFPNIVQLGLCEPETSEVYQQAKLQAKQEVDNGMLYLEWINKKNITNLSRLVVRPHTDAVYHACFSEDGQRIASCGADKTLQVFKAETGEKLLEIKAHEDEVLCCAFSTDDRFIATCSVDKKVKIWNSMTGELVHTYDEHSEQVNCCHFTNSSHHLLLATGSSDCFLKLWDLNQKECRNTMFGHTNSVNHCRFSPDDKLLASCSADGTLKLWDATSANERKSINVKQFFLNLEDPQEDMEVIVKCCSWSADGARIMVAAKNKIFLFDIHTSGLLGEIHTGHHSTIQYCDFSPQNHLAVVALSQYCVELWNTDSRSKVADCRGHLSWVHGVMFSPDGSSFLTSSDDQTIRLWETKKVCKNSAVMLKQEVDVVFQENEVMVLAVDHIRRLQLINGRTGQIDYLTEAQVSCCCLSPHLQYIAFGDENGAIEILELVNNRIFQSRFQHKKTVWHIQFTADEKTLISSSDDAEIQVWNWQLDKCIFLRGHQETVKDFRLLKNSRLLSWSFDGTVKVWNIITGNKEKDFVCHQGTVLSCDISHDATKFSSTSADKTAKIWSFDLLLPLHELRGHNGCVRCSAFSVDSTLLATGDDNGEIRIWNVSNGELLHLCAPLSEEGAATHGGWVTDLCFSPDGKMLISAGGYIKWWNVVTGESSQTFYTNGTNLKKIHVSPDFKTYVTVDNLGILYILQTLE

[7] = biological target: Arf-GAP with SH3 domain, ANK repeat and PH domain-containing protein 1 (Homo sapiens, UniProt Q9ULH1); assay type: functional;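 note: biochemical fluorescence polarization dose–response screen measuring inhibition of ASAP1; ASAP1 GAP domain stimulating GTP hydrolysis by truncated human ARF1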
Arf-GAP with SH3 domain, ANK repeat and PH domain-containing protein 1, sequence (Q9ULH1 whole entry, the tested form may be a part): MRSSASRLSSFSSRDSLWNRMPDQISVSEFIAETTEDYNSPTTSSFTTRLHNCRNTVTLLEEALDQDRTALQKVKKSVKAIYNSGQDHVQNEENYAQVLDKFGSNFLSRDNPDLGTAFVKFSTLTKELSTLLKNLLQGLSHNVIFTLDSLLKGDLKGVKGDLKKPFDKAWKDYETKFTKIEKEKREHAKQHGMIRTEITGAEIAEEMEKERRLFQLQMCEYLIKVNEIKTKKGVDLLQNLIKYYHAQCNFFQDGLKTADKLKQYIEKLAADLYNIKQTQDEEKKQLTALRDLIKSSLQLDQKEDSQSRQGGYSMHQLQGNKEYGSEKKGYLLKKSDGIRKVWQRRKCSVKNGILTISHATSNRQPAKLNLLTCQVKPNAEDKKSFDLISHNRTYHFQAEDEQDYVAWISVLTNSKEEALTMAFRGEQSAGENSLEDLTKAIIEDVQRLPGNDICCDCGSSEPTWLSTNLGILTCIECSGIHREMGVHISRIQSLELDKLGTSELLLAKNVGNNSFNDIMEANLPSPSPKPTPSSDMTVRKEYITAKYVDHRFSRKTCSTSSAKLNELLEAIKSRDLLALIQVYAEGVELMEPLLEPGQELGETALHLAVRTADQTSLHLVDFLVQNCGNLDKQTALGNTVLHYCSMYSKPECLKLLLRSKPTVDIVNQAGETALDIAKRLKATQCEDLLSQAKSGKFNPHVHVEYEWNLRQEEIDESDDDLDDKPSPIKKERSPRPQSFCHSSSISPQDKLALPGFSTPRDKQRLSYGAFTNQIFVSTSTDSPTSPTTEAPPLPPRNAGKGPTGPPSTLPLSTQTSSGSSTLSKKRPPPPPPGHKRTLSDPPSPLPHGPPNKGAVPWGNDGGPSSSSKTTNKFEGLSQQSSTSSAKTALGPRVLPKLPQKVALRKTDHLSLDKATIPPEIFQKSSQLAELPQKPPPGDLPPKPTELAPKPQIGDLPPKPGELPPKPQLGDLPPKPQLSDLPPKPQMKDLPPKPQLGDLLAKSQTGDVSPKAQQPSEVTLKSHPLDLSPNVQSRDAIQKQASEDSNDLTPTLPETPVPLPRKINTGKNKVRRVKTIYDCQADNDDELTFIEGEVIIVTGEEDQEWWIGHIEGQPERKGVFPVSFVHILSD

[8] = biological target: T7, Replicative DNA helicase DnaB (Mycobacterium tuberculosis, UniProt P9WMR3); experiment: DnaB intein splicing inhibitors, dose response, biochemical, cell-free fluorescence (AID 449749); assay type: functional
T7 sequence (P9WMR3 whole entry): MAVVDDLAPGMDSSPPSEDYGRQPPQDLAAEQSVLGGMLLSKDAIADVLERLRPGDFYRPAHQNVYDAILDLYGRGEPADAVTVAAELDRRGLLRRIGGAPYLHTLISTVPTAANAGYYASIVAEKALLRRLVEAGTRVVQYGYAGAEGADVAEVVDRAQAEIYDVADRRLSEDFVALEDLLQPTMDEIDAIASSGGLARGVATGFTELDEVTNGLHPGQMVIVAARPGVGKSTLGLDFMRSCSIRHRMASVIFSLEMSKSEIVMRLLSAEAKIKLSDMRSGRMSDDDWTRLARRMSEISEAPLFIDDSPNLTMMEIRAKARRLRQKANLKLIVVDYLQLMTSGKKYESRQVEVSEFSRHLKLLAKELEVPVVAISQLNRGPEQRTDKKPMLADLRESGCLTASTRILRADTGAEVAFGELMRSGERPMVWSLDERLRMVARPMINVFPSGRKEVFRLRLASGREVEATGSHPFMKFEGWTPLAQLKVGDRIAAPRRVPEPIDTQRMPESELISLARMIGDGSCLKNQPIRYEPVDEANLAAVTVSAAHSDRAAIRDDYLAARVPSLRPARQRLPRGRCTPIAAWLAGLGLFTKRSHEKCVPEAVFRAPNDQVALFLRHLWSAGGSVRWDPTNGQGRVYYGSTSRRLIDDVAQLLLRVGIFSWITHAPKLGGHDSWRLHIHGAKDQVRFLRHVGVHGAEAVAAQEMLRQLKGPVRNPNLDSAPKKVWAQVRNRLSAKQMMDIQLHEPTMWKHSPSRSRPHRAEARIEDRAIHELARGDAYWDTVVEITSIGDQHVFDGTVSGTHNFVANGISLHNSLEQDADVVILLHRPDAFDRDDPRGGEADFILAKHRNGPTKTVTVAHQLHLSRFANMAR

[9] = intracellular Trypanosoma cruzi inhibitors in host cells – cell-based, plate reader, cherry-pick samples, set 3, dose response (AID 651818); assay type: functional;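 note: compounds incubated with infected cells for about four days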
[10] = cytotoxicity in L-6 rat myocytes, dose response, cytotoxicity control, cell-based, plate reader, cherry-pick (AID 651896); assay type: functional
[11] = T. b. rhodesiense proliferation inhibition, dose response, STIB900 strain, plate reader, cherry pick (AID 651893); assay type: functional, cell-based; conditions: Trypanosoma brucei
[12] = Inhibition of T. cruzi Tulahuen strain amastigotes in L-6 muscle cells Measured in Cell-Based and Microorganism Combination System Using Plate Reader - 2138-03_Inhibitor_Dose_CherryPick_Activity.; assay type: functional; conditions: Rattus norvegicus, L6
[13] = L. donovani amastigote growth inhibition, dose response, axenic amastigotes, plate reader, cherry pick (AID 651891); assay type: functional, cell-based; conditions: Leishmania donovani
[14] = Inhibition of Plasmodium falciparum NF54 Measured in Cell-Based System Using Plate Reader - 2138-11_Inhibitor_Dose_CherryPick_Activity.; assay type: functional

Cc1ccc(-c2nc(N3CCN(C)CC3)c3ccccc3n2)cc1
AC50 (Vero): 26.8 µM (active)
AC50 [1]: 41.3 µM (active)

Clc1cccc(-c2nnc(SCc3nc4ccccc4[nH]3)n2Cc2ccco2)c1
EC50 [2]: 8.09 µM (active)
IC50 (Insulin-degrading enzyme): 2.57 µM (active)
IC50 [3]: 22.4 µM (not active)
EC50 [4]: 10.1 µM (inactive)

COc1ccccc1Nc1cc2cc(Br)ccc2c(=O)[nH]1
IC50 [5]: 10.7 µM (inactive)
EC50 (Protein RecA): 23.3 µM (active)
IC50 [6]: 1.51 µM (active)
IC50 [7]: 165 µM (inactive)
AC50 [8]: > 120 µM (inactive)

COc1ccc(CN(C)C[C@@H]2Oc3c(NC(=O)c4ccncc4)cccc3C(=O)N([C@H](C)CO)C[C@H]2C)cc1
AC50 [9]: 0.361 µM (active)
IC50 [10]: > 100 µM (inactive)
IC50 [11]: 2.62 µM (inactive)
IC50 [12]: 5.91 µM (inactive)
IC50 [13]: > 100 µM (inactive)
IC50 [14]: 5.91 µM (inactive)
